Assay results: patent US20180118801A1, “COMPOSITIONS AND METHODS FOR DIAGNOSING AND TREATING AUTOIMMUNE DISEASES” (THE REGENTS OF THE UNIVERSITY OF COLORADO, a body corporate, priority 2015, published 2018)
“Also recorded” adds a separate entry of the source.

What was measured:
Assay in all cases: T cell antigen assay, IFN-gamma ELISA response of T cell clone
Format in all cases: cell-based, NOD mouse
[1] = test system: CD4 T cell clone BDC-2.5; conditions: for IFN-gamma T cell response to peptides: BDC-2.5, illustrating the WE14-reactive clones, synthetic peptides, FIG. 4A; for T cell recognition/activation by HIP sequence (IFN-gamma response): BDC-2.5, synthetic HIP library screen, positive if ELISA absorbance 3×sd above average (FIG. 2B)
Experimental: (§1) The antigenicity of biochemical fractions, peptides, or reaction mixtures was assessed through the IFN-y responses of T-cell clones. In 96-well microtiter plates, assay cultures contained 2×10^4 responder T cells, 2.5×10^4 NOD peritoneal exudate cells as antigen-presenting cells, and -cell antigen. ELISA (BD Biosciences) was used to determine IFN-gamma production by the responder T cells. Aliquots of cell extracts (β-Mem) were used as positive controls throughout the experiments. Test wells contained biochemical fractions, peptides, or reaction mixtures. Synthetic peptides (>95%) were obtained from CHI Scientific.
(§2) For the synthesis of a HIP peptide through chemical crosslinking of an N-terminally acetylated “left peptide” and an unmodified “right peptide”, a two-step crosslinking procedure was adopted. To ensure water solubility of peptides, “left peptides” (>85%, CHI-Scientific) were N-terminally extended and “right peptides” (>85%, CHI-Scientific) were C-terminally extended through the addition of two arginine residues separated by an alanine residue from the core amino acid sequences. A total of 10 μl “left peptide” (10 mM: SEQ ID NO: 177 Acetyl-RRAHLVEAL. SEQ ID NO: 178 Acetyl-RRALVEALY, SEQ ID NO: 179 Acetyl-RRAVEALYL, SEQ ID NO. 180 Acetyl-RRAGDLQTL, SEQ ID NO: 181 Acetyl-RRADLQTLA, SEQ ID NO: 182 Acetyl-RRALQTLAL, SEQ ID NO: 183 Acetyl-RRAQTLALE, or SEQ ID NO: 184 Acetyl-RRATLALEV) was added to 74.5 μl reaction buffer (20 mM MES, 150 mM NaCl) in a 1.5 ml eppendorf tube, followed by the addition of a carbodiimide, such as, for example, 1.5 μl freshly prepared 500 mM 1-Ethyl-3-[3-dimethylaminopropyl]carbodiimide hydrochloride (EDC) and 1.5 μl 1000 mM N-hydroxysuccinimide (NHS). After 15 min of incubation at room temperature, a reducing agent was added, for example, […] of DTT (1000 mM) were added to quench residual EDC. Following another 15 min of incubation at room temperature, […] of “right peptide” (10 mM: SEQ ID NO: 185 KCNTATARR, SEQ ID NO: 186 NAARDPARR, SEQ ID NO: 187 TPVRSGTARR, or SEQ ID NO: 188 WSRMDARR) were added. Reaction mixtures were incubated for 16 h at 37° C., prior to the direct addition of […] to the T cell assay plates (see for example U.S. Pat. No. 5,589,458). ELISA was used to measure IFN-gamma T cell responses to individual HIP reaction mixtures. For each T cell clone, the ELISA absorbance values to all peptides were averaged and the standard deviation was calculated. If the absorbance value toward an individual HIP was three times the standard deviation (3×sd) above the average signal, the response toward the peptide was classified as positive.

[2] = test system: T cell clone BDC-9.3; conditions: for IFN-gamma T cell response to peptides: BDC-9.3, exemplifying the IAPP-reactive clones, synthetic peptides, FIG. 4B; for T cell recognition/activation by HIP sequence (IFN-gamma response): BDC-9.3, synthetic HIP library screen (FIG. 2E)
Experimental: as §1, §2

[3] = test system: T cell clone BDC-6.9; conditions: for IFN-gamma T cell response to peptides: BDC-6.9, synthetic peptides; for T cell recognition/activation by HIP sequence (IFN-gamma response): BDC-6.9 (same TCR as BDC-9.3)
Experimental: as §1, §2

[4] = test system: CD4 T cell clone BDC-9.46; conditions: synthetic HIP library screen (FIG. 2D)
Experimental: as §1, §2

[5] = test system: CD4 T cell clone BDC-10.1; conditions: synthetic HIP library screen (FIG. 2C)
Experimental: as §1, §2

insulin 2 C-peptide: full length mouse insulin 2 C-peptide (EVEDPQVAQLELGGGPGAGDLQTLALEVAQQ)
IFN-gamma T cell response to peptides [1]: None of the clones respond | IFN-gamma T cell response to peptides ([1]; listed as Ins2 C-Peptide): None of the clones respond | IFN-gamma T cell response to peptides ([1]; listed as insulin C-peptide): none of the WE14-reactive T cell clones recognize | IFN-gamma T cell response to peptides [2]: None of the clones respond

WE14-HIP: HIP spanning full-length Ins2 C-Peptide fragment ending in LQTLAL on the N-terminal side and the entire WE14 sequence on the C-terminal side (EVEDPQVAQLELGGGPGAGDLQTLALWSRMDQLAKELTAE)
IFN-gamma T cell response to peptides [1]: low nanomolar concentrations

IAPP2-HIP: HIP spanning full-length Ins2 C-Peptide fragment ending in LQTLAL on the N-terminal side and the entire IAPP2 sequence on the C-terminal side (EVEDPQVAQLELGGGPGAGDLQTLALNAAGDPNRESLDFLLV)
IFN-gamma T cell response to peptides [3]: low nanomolar concentrations | IFN-gamma T cell response to peptides [2]: low nanomolar concentrations

insulin 2 C-peptide fragment ending with the amino acid sequence SEQ ID NO: 192 DLQTLAL: insulin 2 C-peptide fragment ending with DLQTLAL (EVEDPQVAQLELGGGPGAGDLQTLAL)
IFN-gamma T cell response to peptides [1]: None of the clones respond | IFN-gamma T cell response to peptides [2]: None of the clones respond

LQTLALWSRMD [SEQ ID NO: 199]
T cell recognition/activation by HIP sequence (IFN-gamma response) [1]: activate | T cell recognition/activation by HIP sequence (IFN-gamma response) [4]: activate | T cell recognition/activation by HIP sequence (IFN-gamma response) [5]: activate

IAPP2: IAPP propeptide 2, naturally occurring cleavage product found in secretory granules of β-cells (NAAGDPNRESLDFLLV)
IFN-gamma T cell response to peptides [3]: Neither BDC-9.3 nor BDC-6.9 recognize | IFN-gamma T cell response to peptides [2]: Neither BDC-9.3 nor BDC-6.9 recognize; also recorded: not responsive

DLQTLALWSRM [Sequence 1]
T cell recognition/activation by HIP sequence (IFN-gamma response) [1]: recognized | T cell recognition/activation by HIP sequence (IFN-gamma response) [4]: recognized | T cell recognition/activation by HIP sequence (IFN-gamma response) [5]: recognized

DLQTLALNAAR [Sequence 2]
T cell recognition/activation by HIP sequence (IFN-gamma response) [3]: recognized | T cell recognition/activation by HIP sequence (IFN-gamma response) [2]: recognized

LQTLALNAARD [SEQ ID NO: 197]
T cell recognition/activation by HIP sequence (IFN-gamma response) [3]: recognized | T cell recognition/activation by HIP sequence (IFN-gamma response) [2]: recognized

WE14: naturally occurring peptide cleavage product of chromogranin A (ChgA) (WSRMDQLAKELTAE)
IFN-gamma T cell response to peptides [1]: weakly antigenic; also recorded: poorly antigenic; also recorded: high concentrations
